Experimental data as given in ChEMBL document CHEMBL1136053, “Development of new hydrogen-bond descriptors and their application to comparative molecular field analyses” (J Med Chem, 2002).
Non-standard residues stand in square brackets, D forms with d. Residues, ends and D or L forms follow the SMILES beside them. ξ: configuration not given here. *: point of attachment. ξF = NC(Cc1ccccc1)C(=O)O; Cbz = O=C(OCc1ccccc1)*; NHOH = ON*

Target: T1, Thermolysin (Bacillus thermoproteolyticus, UniProt P00800)
T1 sequence (P00800 whole entry): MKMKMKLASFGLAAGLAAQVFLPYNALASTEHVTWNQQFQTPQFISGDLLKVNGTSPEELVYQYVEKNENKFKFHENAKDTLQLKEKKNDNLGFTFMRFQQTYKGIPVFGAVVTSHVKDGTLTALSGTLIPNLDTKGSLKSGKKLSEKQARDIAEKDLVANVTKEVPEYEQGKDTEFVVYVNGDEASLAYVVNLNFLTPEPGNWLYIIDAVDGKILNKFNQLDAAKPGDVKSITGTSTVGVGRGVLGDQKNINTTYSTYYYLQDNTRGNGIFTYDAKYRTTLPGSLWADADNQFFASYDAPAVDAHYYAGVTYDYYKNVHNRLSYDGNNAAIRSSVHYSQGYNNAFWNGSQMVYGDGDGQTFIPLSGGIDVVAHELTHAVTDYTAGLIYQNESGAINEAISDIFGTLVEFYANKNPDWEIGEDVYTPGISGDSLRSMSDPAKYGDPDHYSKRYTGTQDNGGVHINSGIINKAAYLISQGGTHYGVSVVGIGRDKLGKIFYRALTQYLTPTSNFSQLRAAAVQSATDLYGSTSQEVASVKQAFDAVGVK
Assay: pKi value expresses binding affinity against thermolysin pKi = -logKi (where Ki is in mol/L)

| Structure (SMILES) | Ki [µM] | pKi |
| --- | --- | --- |
| C[C@H](NC(=O)[C@H](C)NP(=O)(O)O)C(=O)O | 87.1 |  |
| C[C@H](C(=O)NO)C(=O)N[C@@H](C)C(=O)NCC(N)=O | 1100 |  |
| C[C@H](NC(=O)[C@H](Cc1ccccc1)NS(=O)(=O)O)C(=O)NCC(N)=O | 4270 |  |
| C[C@H](NC(=O)[C@H](Cc1ccccc1)NP(=O)(O)S)C(=O)NCC(N)=O (some centres not stated) | 6.92 |  |
| C[C@H](NC(=O)[C@H](Cc1ccccc1)C(=O)NO)C(=O)NCC(=O)O | 0.661 |  |
| CC(C)C[C@H](C(=O)NO)C(=O)N[C@@H](C)C(=O)NCC(N)=O | 0.479 |  |
| C[C@H](NC(=O)[C@H](Cc1ccccc1)NC(=O)CO)C(=O)NCC(N)=O | 2880 |  |
| C[C@H](NC(=O)[C@H](Cc1ccccc1)C(=O)NO)C(=O)NCC(N)=O | 0.661 |  |
| CC(C)C[C@H](NC(=O)CNC(=O)CNC(=O)OCc1ccccc1)C(=O)NO | 38.9 |  |
| CC(=O)CC(=O)N[C@@H](Cc1ccccc1)C(=O)N[C@@H](C)C(=O)NCC(N)=O | 3090 |  |
| C[C@H](NC(=O)[C@@H](CS)Cc1ccccc1)C(=O)NCC(N)=O | 0.759 |  |
| C[C@H](NC(=O)[C@H](Cc1ccccc1)C(=O)O)C(=O)NCC(N)=O | 417 |  |
| CC(C)C[C@@H](C(=O)N[C@@H](C)C(=O)NCC(N)=O)N(O)C=O | 3390 |  |
| CC[C@H](C)[C@H](NP(=O)(O)O)C(=O)N[C@@H](C)C(=O)O | 0.363 |  |
| O=C(NC(Cc1ccccc1)C(=O)O)OCc1ccccc1 (configuration not stated) | 513 |  |
| CC(=O)N(O)[C@@H](CC(C)C)C(=O)N[C@@H](C)C(=O)NCC(N)=O | 3390 |  |
| CC(C)CC(OP(=O)(O)C(Cc1ccccc1)NC(=O)OCc1ccccc1)C(=O)NC(C)C(=O)O (configuration not stated) | 0.0447 |  |
| CC(C)CC(NP(=O)(O)CNC(=O)OCc1ccccc1)C(N)=O (configuration not stated) | 0.759 |  |
| CCCCCCP(=O)(O)CC(CC(C)C)C(=O)NC(Cc1c[nH]c2ccccc12)C(=O)NC (configuration not stated) | 0.0525 |  |
| CC(C)CC(CP(=O)(O)CNC(=O)OCc1ccccc1)C(=O)NCC(=O)O (configuration not stated) | 0.302 |  |
| CC(C)CC(OP(=O)(O)[C@@H](Cc1ccccc1)NC(=O)OCc1ccccc1)C(=O)NC(C)C(=O)O (some centres not stated) | 30.2 |  |

| Structure (SMILES) | Ki [µM] | pKi |
| --- | --- | --- |
| CC(C)CC(OP(=O)(O)CNC(=O)OCc1ccccc1)C(N)=O (configuration not stated) | 661 |  |
| O=C(O)CC(=O)NC(CS)Cc1ccccc1 (configuration not stated) | 2.29 |  |
| CCCCCCP(=O)(O)NC(CC(C)C)C(=O)NC(Cc1c[nH]c2ccccc12)C(=O)NC (configuration not stated) | 0.00151 |  |
| CC(C)CC(OP(=O)(O)[C@@H](CC(C)C)NC(=O)OCc1ccccc1)C(=O)NC(C)C(=O)O (some centres not stated) | 41.7 |  |
| CC(C)CC(NP(=O)(O)O)C(N)=O (configuration not stated) | 79.4 |  |
| CC(NC(=O)C(Cc1ccccc1)NP(=O)(O)O)C(=O)NCC(N)=O (configuration not stated) | 2.57 |  |
| CC(C)CC(OP(=O)(O)C(CC(C)C)NC(=O)OCc1ccccc1)C(=O)NC(C)C(=O)O (configuration not stated) | 0.676 |  |
| CC(C)CC(NP(=O)(O)OC1OC(C)C(O)C(O)C1O)C(=O)NC(Cc1c[nH]c2ccccc12)C(=O)O (configuration not stated) | 0.0282 |  |
| CCCCCCP(=O)(O)OC(CC(C)C)C(=O)NC(Cc1c[nH]c2ccccc12)C(=O)NC (configuration not stated) | 1.45 |  |
| O=C(O)C(Cc1ccccc1)NP(=O)(O)O (configuration not stated) | 72.4 |  |
| CC(C)CC(N)C(=O)NO (configuration not stated) | 191 |  |
| CCOC(=O)C(Cc1ccccc1)C(=O)NO (configuration not stated) | 20 |  |
| CC(C)CC(OP(=O)(O)CNC(=O)OCc1ccccc1)C(=O)NCC(=O)O (configuration not stated) | 229 |  |
| O=C(CCc1ccccc1)NC(Cc1ccccc1)C(=O)O (configuration not stated) | 1620 |  |
| CC(C)CC(CP(=O)(O)CNC(=O)OCc1ccccc1)C(N)=O (configuration not stated) | 1.41 |  |
| CC(C)CC(NC(=O)NNC(=O)OCc1ccccc1)C(N)=O (configuration not stated) | 380 |  |
| CC(NC(=O)C(Cc1ccccc1)C(=O)NO)C(=O)NCC(=O)Nc1ccc([N+](=O)[O-])cc1 (configuration not stated) | 0.427 |  |
| NC(=O)CNC(=O)C(Cc1ccc(O)cc1)NC(=O)OCc1ccccc1 (configuration not stated) | 219 |  |
| O=C(CNC(=O)CNC(=O)OCc1ccccc1)NO (Cbz-Gly-Gly-{NHOH}) | 933 |  |
| NC(=O)CNC(=O)C(Cc1ccccc1)NC(=O)OCc1ccccc1 (configuration not stated) (Cbz-[ξF]-Gly-NH2) | 347 |  |

Second part, the compound after the results:

| Ki [µM] | pKi | Structure (SMILES) |
| --- | --- | --- |
| 20900 |  | CC(C)C[C@H](NC(=O)CNC(=O)OCc1ccccc1)C(N)=O |
| 12.9 |  | CC(C)C[C@H](NC(=O)CNC(=O)OCc1ccccc1)C(=O)NO |
| 12.9 |  | CC(C)CC(OP(=O)(O)CNC(=O)OCc1ccccc1)C(=O)NC(C)C(=O)O (configuration not stated) |
| 1.7 |  | CC(C)CC(NC(CCc1cccc(CN)c1)C(=O)O)C(=O)NC(Cc1ccccc1)C(=O)O (configuration not stated) |
| 2240 |  | CC(C)CC(NC(=O)CNC(=O)OCc1ccccc1)C(=O)N(C)O (configuration not stated) |
| 1.82 |  | CC(C)CC(OP(=O)(O)C(C)NC(=O)OCc1ccccc1)C(=O)NC(C)C(=O)O (configuration not stated) |
| 0.219 |  | CC(C)CC(NC(CCNC(=O)C(Cc1ccccc1)NC(=O)OCc1ccccc1)C(=O)O)C(=O)NC(Cc1ccccc1)C(=O)O (configuration not stated) |
| 2.82 |  | CC(C)CC(NC(C)C(=O)O)C(=O)NC(Cc1ccccc1)C(=O)O (configuration not stated) |
| 0.603 |  | CC(C)CC(NC(CCc1ccccc1)C(=O)O)C(=O)NC(Cc1ccccc1)C(=O)O (configuration not stated) |
| 47.9 |  | CC(C)C[C@@H](NC(=O)CNC(=O)OCc1ccccc1)C(=O)NO |
| 0.0759 |  | CC(C)CC(NP(=O)(O)CNC(=O)OCc1ccccc1)C(=O)NC(Cc1ccccc1)C(=O)O (configuration not stated) |
| 0.0339 |  | CC(C)C[C@H](NC(CCc1ccccc1)C(=O)O)C(=O)N[C@@H](Cc1c[nH]c2ccccc12)C(=O)O (some centres not stated) |
| 0.479 |  | CC(C)CC(NP(=O)(O)[C@@H](Cc1ccccc1)NC(=O)OCc1ccccc1)C(=O)NC(C)C(=O)O (some centres not stated) |
| 53.7 |  | CC(C)CC(OP(=O)(O)CNC(=O)OCc1ccccc1)C(=O)NC(Cc1ccccc1)C(=O)O (configuration not stated) |
| 0.0186 |  | CC(C)CC(CP(=O)(O)CNC(=O)OCc1ccccc1)C(=O)NC(C)C(=O)O (configuration not stated) |
| 24 |  | CC(C)CC(OP(=O)(O)[C@@H](C)NC(=O)OCc1ccccc1)C(=O)NC(C)C(=O)O (some centres not stated) |

| Ki [µM] | pKi | Structure (SMILES) |
| --- | --- | --- |
| 0.851 |  | CC(C)CC(NC(CCNC(=O)C(C)NC(=O)OCc1ccccc1)C(=O)O)C(=O)NC(Cc1ccccc1)C(=O)O (configuration not stated) |
| 0.011 |  | CC(C)CC(NC(CCNC(=O)C(Cc1ccccc1)NC(=O)OCc1ccccc1)C(=O)O)C(=O)NC(Cc1c[nH]c2ccccc12)C(=O)O (configuration not stated) |
| 0.182 |  | CC(C)CC(CP(=O)(O)CNC(=O)OCc1ccccc1)C(=O)NC(CC(C)C)C(=O)O (configuration not stated) |
| 0.0191 |  | CC(C)CC(NP(=O)(O)O)C(=O)NC(Cc1ccccc1)C(=O)O (configuration not stated) |
| 2.69 |  | CC(C)CC(NC(=O)NNC(=O)OCc1ccccc1)C(=O)NO (configuration not stated) |
|  | 3.6 | CC(C)C[C@@H](NC(=O)CNC(=O)CNC(=O)OCc1ccccc1)C(=O)NO |
| 8.91 |  | CC(C)CC(NC(=O)C(CC(C)C)OP(=O)(O)CNC(=O)OCc1ccccc1)C(=O)O (configuration not stated) |
| 0.269 |  | CC(C)CC(NP(=O)(O)CNC(=O)OCc1ccccc1)C(=O)NCC(=O)O (configuration not stated) |
| 3800 |  | CCCCC(NC(CC(C)C)C(=O)NC(Cc1ccccc1)C(=O)O)C(=O)O (configuration not stated) |
| 0.00912 |  | CC(C)CC(NC(=O)C(CC(C)C)NP(=O)(O)CNC(=O)OCc1ccccc1)C(=O)O (configuration not stated) |
| 0.0166 |  | CC(C)CC(NP(=O)(O)CNC(=O)OCc1ccccc1)C(=O)NC(C)C(=O)O (configuration not stated) |
| 0.407 |  | CC(C)CC(NC(CCNC(=O)CNC(=O)OCc1ccccc1)C(=O)O)C(=O)NC(Cc1ccccc1)C(=O)O (configuration not stated) |
| 6.76e-05 |  | CC(C)CC(NP(=O)(O)C(Cc1ccccc1)NC(=O)OCc1ccccc1)C(=O)NC(C)C(=O)O (configuration not stated) |
| 0.0661 |  | CC(C)CC(CP(=O)(O)CNC(=O)OCc1ccccc1)C(=O)NC(Cc1ccccc1)C(=O)O (configuration not stated) |
| 3090 |  | CC(C)C[C@H](NC(=O)OCc1ccccc1)C(=O)NCC(N)=O (Cbz-Leu-Gly-NH2) |
